Key:
SKOV3 CR cells [1] = assay: cell viability / proliferation (SRB) assay, cisplatin resistant SKOV3 CR cells; format: cell-based; details: for medium CI (combination index): combination with cisplatin, CI<1 synergism; for sensitization of SKOV3 CR cells to cisplatin (proliferation): combination with cisplatin at different doses, FIG. 13: 0.4 μM LY2784544, five days
Protocol: (§1) FIG. 1 is a line graph showing the proliferation of SKOV3 parental and SKOV3 CR cells treated with increasing concentrations of cisplatin for five days. Data are represented as mean±SD from three independent experiments performed in triplicate. Indicated IC50 values represent the mean of two independent experiments performed in triplicate.
(§2) FIG. 13 is a line graph showing the proliferation of SKOV3 parental and SKOV3 CR cells treated with increasing concentrations of cisplatin and 0.4 μM LY2784544 for five days. Data are represented as mean±SD from three independent experiments performed in triplicate.
(§3) Cisplatin resistant ovarian cancer cell lines were generated using procedures as described previously. Jazaeri et al., Mol Cancer Ther 12: 1958-1967 (2013). Ovarian cancer cells SKOV3 were cultured in the medium with cisplatin (Sigma-Aldrich) for three weeks, followed by release to cisplatin-free medium for another three weeks. In the next cycle, the cisplatin treatment was repeated in the medium with an increased concentration of cisplatin. After six-cycle treatment, cells were identified that were able to grow in the medium with a high concentration of cisplatin. These cisplatin resistant cells were named as SKOV3 CR (FIG. 1).
(§4) The results obtained from combinational HTS were confirmed by testing whether LY2784544 overcomes cisplatin resistance in ovarian cancer cells using multiple assays. […] The Combination index (CI), which quantitatively describes the interaction between drugs including synergism (CI<1), additive effect (CI=1), and antagonism (CI>1), was calculated.

[2] = test system: reactive oxygen species (ROS); assay: ROS production (CellROX Orange reagent); format: cell-based; details: SKOV3 cells, YCG063 20 μM, cisplatin 1 μM, 24 hr
Protocol: FIG. 69 are bar graphs ((A)-(C) and (E)-(F)) and illustrations ((D) and (G)) showing that reactive oxygen species (ROS) induces IL-11 expression. (A) is a bar graph showing quantification of ROS production in SKOV3 and SKOV3 CR cells. Data are represented as means±SD from three independent experiments. **p<0.01. Scale bar, 100 μm. (B) is a bar graph showing quantification of ROS production in SKOV3 CR cells after treatment with the ROS inhibitor YCG063 at 20 μM for 24 hr. Data are represented as means±SD from three independent experiments. ***p<0.001. (C) is a bar graph showing IL-11 levels measured by ELISA in the medium of SKOV3 CR cells treated with YCG063 at 20 μM for 24 hr. Data are represented as mean±SD from three independent experiments performed in triplicate. ***p<0.001. […] (E) is a bar graph showing quantification of ROS production in SKOV3 cells after treated with the ROS inhibitor YCG063 (20 μM), cisplatin (1 μM), or both for 24 hr. […] (F) is a bar graph showing IL-11 levels measured by ELISA in SKOV3 cells treated with YCG063 (20 μM), cisplatin (1 μM) or both for 24 hr. […]
DNA damage induces generation of reactive oxygen species (ROS). […] ROS was detected with a live cell-permeable, fluorophore CellROX Orange reagent (Thermo Fisher Scientific) according to the manufacturer's instructions. […] ROS intensity was analyzed using ImageJ (NIH) software. […]

FRA1 = assay: immunoblot of phosphorylated and total FRA1; format: cell-based; details: SKOV3 CR cells, 20 μM, 24 hr
From the text: FIG. 70 are illustrations ((A), (B), and (D)) and a bar graph (C) showing that ROS induces IL-11 expression by promoting expression of FOSL1 (FRA1). (A) is an illustration showing total and phosphorylated levels of FRA1 in SKOV3 and SKOV3 CR cells. […] (C) is a bar graph showing IL-11 levels measured by ELISA in the medium of SKOV3 CR cells transfected with FOSL1 siRNA for 48 hr. Data are represented as mean±SD from three independent experiments performed in triplicate. ***p<0.001. (D) is an illustration showing an immunoblot of phosphorylated and total FRA1 protein in SKOV3 CR cells treated with YCG063 20 μM for 24 hr.
To achieve this goal, pathway analyses using PathwayNet were conducted, which identified a total of 20 transcription factors that likely regulate IL-11. […] It was next tested whether ROS is required for activation or expression of FRA1 by treating SKOV3 CR cells with YGC063.

[3] = test system: phosphorylation of JAK2 (Y1007/1008) and STAT5 (Y694); assay: western blot of JAK2/STAT5 signaling; format: cell-based
Protocol: FIG. 22 is an illustration showing that LY2784544 down-regulates JAK2/STAT5 signaling in SKOV3 CR cells. Cells were treated with the indicated concentrations of LY2784544 for 48 hr.
FIG. 23 is an illustration showing the immunoblotting for the indicated targets in SKOV3 CR cells treated with vehicle (DMSO), 3 μM LY2784544, 5 μM cisplatin, or the combination for 48 hr.
To investigate the molecular mechanism by which the JAK2-mediated pathway regulates cisplatin resistance of ovarian cancer, the activation of the JAK2-mediated pathway in paired sensitive cell line (SKOV3, IGROV1, PEO1) and resistant cell lines (SKOV3 CR, IGROV1 CR, PEO4) was examined by western blot. Compared to cisplatin sensitive cells SKOV3 or IGROV1, the JAK2 protein levels are not changed in cisplatin resistant cells SKOV3 CR, IGROV1 CR, or PEO4.
The effects of LY2784544 on the JAK2/STAT5 signaling pathway in both SKOV3 and SKOV3 CR cells were examined.

IL-11 = IL-11 secretion by ELISA in cell culture medium; format: cell-based, human; details: 24 hr
Protocol: FIG. 69 are bar graphs ((A)-(C) and (E)-(F)) and illustrations ((D) and (G)) showing that reactive oxygen species (ROS) induces IL-11 expression. (A) is a bar graph showing quantification of ROS production in SKOV3 and SKOV3 CR cells. Data are represented as means±SD from three independent experiments. **p<0.01. Scale bar, 100 μm. (B) is a bar graph showing quantification of ROS production in SKOV3 CR cells after treatment with the ROS inhibitor YCG063 at 20 μM for 24 hr. Data are represented as means±SD from three independent experiments. ***p<0.001. (C) is a bar graph showing IL-11 levels measured by ELISA in the medium of SKOV3 CR cells treated with YCG063 at 20 μM for 24 hr. Data are represented as mean±SD from three independent experiments performed in triplicate. ***p<0.001. (D) is an illustration showing an immunoblot of phosphorylated JAK2 and STAT5 in SKOV3 CR cells treated with YCG063 (20 μM) for 24 hr. (E) is a bar graph showing quantification of ROS production in SKOV3 cells after treated with the ROS inhibitor YCG063 (20 μM), cisplatin (1 μM), or both for 24 hr. Data are represented as means±SD from three independent experiments. **p<0.01, ***p<0.001, n.s. means not significant by one-way ANOVA. (F) is a bar graph showing IL-11 levels measured by ELISA in SKOV3 cells treated with YCG063 (20 μM), cisplatin (1 μM) or both for 24 hr. Data are represented as mean±SD from three independent experiments performed in triplicate. ***p<0.001 by one-way ANOVA. (G) is an illustration showing an immunoblot of phosphorylated JAK2 and STAT5 in SKOV3 CR cells treated with YCG063 (20 μM), cisplatin (1 μM) or both for 24 hr.
Next, the factor from medium that contributes to cisplatin resistance of SKOV3 CR cells was investigated. […] The cell-free culture medium, mouse serum, and patient serum were analyzed for IL-11 levels using a human IL-11 ELISA kit (R&D Systems) according to the manufacturer's instructions. The absorbance was read at 450 nm using a microplate reader (BioTek). The data were normalized to the cell number. […]

SKOV3 CR cells [4] = assay: combinational high throughput screen with cisplatin; format: cell-based; details: in combination with DMSO, 1 μM cisplatin or 20 μM cisplatin
From the text: A combinational HTS using multiple compound libraries including NPC (NIH Pharmaceutical Collection), MIPE (Mechanism interrogation plate), and LOPAC (The Library of Pharmacologically Active Compounds) was used to identify compounds that can overcome cisplatin resistance of SKOV3 CR cells (FIG. 5). The library of pharmacologically active compounds (LOPAC®) of 1280 compounds (1) was purchased from Sigma. The NCGC Pharmaceutical Collection (NPC) of 2816 compounds and mechanism interrogation plate (MIPE) library of 1920 compounds were previously described. Bromberg, J Clin Invest 109: 1139-1142 (2002) and Buchert et al., Oncogene 35: 939-951 (2016). Compounds from all libraries were obtained as powder and dissolved in dimethyl sulfoxide (DMSO) […]. Combinational HTS was performed as previously described. Szasz et al., Oncotarget 7: 49322-49333 (2016). A total of 6,016 compounds were screened. […] In the second screen, these 112 compounds were selected for a dose-response confirmation screen in combination with DMSO, 1 μM cisplatin or 20 μM cisplatin (FIG. 5).

SKOV3 cells = assay: cell viability / proliferation (SRB) assay, SKOV3 parental cells; format: cell-based
Protocol: as §1, §2, §3, §4

How did the “medium CI (combination index)” value (SKOV3 CR cells [1]; SKOV3 CR cells) turn out when `Cc1cnc(Nc2ccc(CN3CCOCC3)cc2)nc1Nc1cccc(S(=O)(=O)NC(C)(C)C)c1` [TG46] was run?
Its value is 0.77.

Which results are given for `CCCCCOc1ccc(/C=N/NC(=O)CSc2c([N+](=O)[O-])ncn2C)cc1` [YCG063]?
ROS production [2]: suppressed ROS production in SKOV3 cells; expression and phosphorylation of FRA1 (FRA1): reduced the expression of FRA1 as well as its phosphorylation; phosphorylation of JAK2 and STAT5 ([3]; SKOV3 CR cells, YCG063 20 μM, 24 hr): significantly reduced; IL-11 secretion (IL-11; SKOV3 CR cells, YCG063 20 μM): significantly reduced IL-11 secretion; cisplatin-induced IL-11 secretion (IL-11; SKOV3 cells, YCG063 20 μM with cisplatin 1 μM): suppressed cisplatin-induced IL-11 secretion

What does the source list for `C/C(=N\NC(=S)N1CCC1)c1ccccn1` [NSC319726]?
sensitization to cisplatin in second (dose-response confirmation) screen (SKOV3 CR cells [4]): significantly sensitize SKOV3 CR cells to cisplatin; sensitization of SKOV3 CR cells to cisplatin (proliferation) (SKOV3 CR cells [1]): can sensitize SKOV3 CR cells to cisplatin

How did the “sensitization to cisplatin in second (dose-response confirmation) screen” value (SKOV3 CR cells [4]) turn out when `NS(=O)(=O)OC[C@@H]1C[C@@H](n2ccc3c(N[C@H]4CCc5ccccc54)ncnc32)C[C@@H]1O` [MLN4924] was run?
Its value is “significantly sensitize SKOV3 CR cells to cisplatin”.

What about the “sensitization of SKOV3 CR cells to cisplatin (proliferation)” value (SKOV3 CR cells [1]) of the same molecule?
The value was “can sensitize SKOV3 CR cells to cisplatin”.

With `Cc1cnc(Nc2ccc(OCCN3CCCC3)cc2)nc1Nc1cccc(S(=O)(=O)NC(C)(C)C)c1` [TG101348] as the molecule, how does the “medium CI (combination index)” value (SKOV3 CR cells [1]; SKOV3 CR cells) read?
The value was 0.77.

What does the source list for `N.N.O=C([O-])C1(C(=O)[O-])CCC1.[Pt+2]` [carboplatin]?
IC50 (SKOV3 cells; SKOV3 parental cells, 5 days): 25.2 µM; fold increase of IC50, SKOV3 CR compared to parental SKOV3 (SKOV3 CR cells [1]; 5 days): 4 fold; IC50 (SKOV3 CR cells [1]; SKOV3 CR cells, 5 days): 118 µM

B1: recombinant IL-11: recombinant human IL-11 (R&D Systems) (protein, UniProt P20809 22-199, looked up)
Interleukin-11: PGPPPGPPRVSPDPRAELDSTVLLTRSLLADTRQLAAQLRDKFPADGDHNLDSLPTLAMSAGALGALQLPGVLTRLRADLLSYLRHVQWLRRAGGSSLKTLEPELGTLQARLDRLLRRLQLLMSRLALPQPPPDPPAPPLAPPSSAWGGIRAAHAILGGLHLTLDWAVRGLLLLKTRL
B1 was tested. Which “resistance of SKOV3 cells to cisplatin (proliferation)” value (SKOV3 cells; IL-11 for 4 hr then cisplatin 5 days) did it give?
Its value is “significantly increased its resistance to cisplatin”.

And the “phosphorylation of JAK2 and STAT5” value ([3]; SKOV3 parental cells, 10 ng/mL IL-11 for 4 hr)?
Its value is “did increase the phosphorylation of JAK2 (Y1007/1008) as well as phosphorylation of STAT5 (Y694)”.

Source: patent US20200031920A1, “Combination Therapy for Treating Cancer” (The George Washington University, priority 2017, published 2020)
